Blank lines part the entries; values can stand above or below the molecule they belong to.
How the values were obtained:
[1] = system: Epstein-Barr virus-early antigen; conditions: in vitro; cited from earlier work
[2] = system: NAD(P)H:quinone oxidoreductase (NQO1); conditions: oral administration; cited from earlier work
[3] = system: NAD(P)H:quinone oxidoreductase 1 (NQO1) gene expression; assay: NQO1 gene expression in RAW 264.7 macrophage cell line, quantitative RT-PCR (Examples 6, 7, 11); format: cell-based; conditions: 0.5 μM SFN; 24 hours
Description: In the study, the macrophage cell line RAW 264.7 was treated with dimethyl sulfoxide (DMSO) (vehicle control), sulforaphane (SFN), a maitake mushroom extract having about 20% beta-glucan content (Maitake), or the combination of sulforaphane and the maitake mushroom extract, for 24 hours. In particular, the cells were treated with one of the following: (i) DMSO (vehicle control), (ii) 0.5 μM SFN, (iii) 250 μg/mL Maitake, (iv) 500 μg/mL Maitake, (v) 750 μg/mL Maitake, (vi) 0.5 μM SFN and 250 μg/mL Maitake, (vii) 0.5 μM SFN and 500 μg/mL Maitake, and (viii) 0.5 μM SFN and 750 μg/mL Maitake. The gene expression of NQO-1 was analyzed via quantitative RT-PCR. The results, which are depicted in FIG. 2, show the following:
In the study, the macrophage cell line RAW 264.7 was treated with DMSO (vehicle control), sulforaphane (SFN), a shiitake mushroom extract having at least 20% alpha-glucan content (Shiitake), or the combination of sulforaphane and the shiitake mushroom extract, for 24 hours. […] The gene expression of NQO1 was analyzed via quantitative RT-PCR. […]
In the study, the macrophage cell line RAW 264.7 was treated with sulforaphane (SFN), Moringa plant components (MOR), or a combination of SFN and MOR, for 24 hours. […] The gene expression of NQO1 was analyzed via quantitative RT-PCR. […]

heme oxygenase-1 (HO-1) = conditions: oral administration; cited from earlier work
mammary tumors = conditions: rat, in vivo; cited from earlier work
myrosinase [4] = assay: Conversion of glucoraphanin to sulforaphane in Simulated Intestinal Fluid (Example 5); format: biochemical, broccoli; conditions: 38° C., ascorbic acid 0.25 to 1.00 mmol/Liter, FIG. 1
Description: Simulated Intestinal Fluid (SIF) powder, a commercially supplied concentrate closely approximating the human intestinal content in terms of composition, pH and ionic strength, was used. The experiment utilized a USP Dissolution Apparatus 2 (paddles), where into six dissolution vessels 500 mL of Simulated Intestinal Fluid was dispensed, along with 150 mg of freeze-dried broccoli sprout powder as a source of myrosinase. […] Aliquots were withdrawn every 15 minutes, and assayed for sulforaphane.

[5] = system: broccoli sprout-derived myrosinase; assay: Consumption of glucoraphanin by myrosinase as a function of ascorbic acid concentration (Example 3); format: biochemical; conditions: 600 μmoles/Liter ascorbic acid
Description: A […] Interaction Chromatographic (HILIC) method was developed, comprising the following conditions: • Column: Waters BEH Amide, 1.7-μm particle size; 2.1 mm×100 mm; • Mobile Phase: 20% 10 mM Ammonium Acetate, pH 5.0; 80% acetonitrile; • Separation mode: isocratic; • Column Temperature: 70° C.; • Flow Rate: 0.7 mL/min.
About 250 mg of broccoli seed extract containing about 12% (w/w) glucoraphanin were subjected to hydrolysis by a fixed concentration of broccoli sprout-derived myrosinase in the presence of variable concentration of ascorbic acid, ranging from 0 to 600 μmoles/Liter. The reaction mixtures were thermostated at 38° C.; aliquots were withdrawn every 15 minutes for 60 minutes, and concentration of glucoraphanin determined chromatographically. The rate of glucoraphanin consumption was interpreted as the rate its conversion to sulforaphane. Graphical representation of glucoraphanin content reduction as a function of increasing ascorbic acid concentration results in a series of linear plots; the slopes of the linear regression lines reflect the rate of glucoraphanin consumption, in pmoles/minute. It is apparent that in the presence of 600 μmoles/Liter concentration of ascorbic acid, the reaction rate increased 13-fold relative to that which proceeded in the absence of modulatory effects of ascorbic acid.

myrosinase [6] = assay: Equimolar conversion of glucoraphanin to sulforaphane by myrosinase, HPLC (Example 4); format: biochemical, broccoli; conditions: PART 2, broccoli seed extract 250 mg
Description: A two-part experiment was conducted to further elucidate the role of ascorbic acid in modulating myrosinase activity. All solutions were prepared in 20 mM Tris-buffered saline, at pH 7.5, previously identified as an optimal for myrosinase activity; each sample tube had 100 mg of freeze-dried broccoli powder accurately weighed in as a source of myrosinase. Experiment was conducted at 38° C. for 2 hours, with sample aliquots removed in 30-minute increments, and both glucoraphanin and sulforaphane content assessed by HPLC. […] A control sample contained no ascorbic acid, and the enzymatic conversion proceeded unassisted by a co-factor. PART 1. In the presence of the fixed concentration of ascorbic acid, 1 mmol/Liter, an increasing amount of broccoli seed extract (about 12% glucoraphanin, w/w) was added, ranging from 250 mg to 500 mg. PART 2. While keeping the amount of broccoli seed extract fixed at 250 mg, the concentration of ascorbic acid was varied from 0.4 mmol/Liter to 3.8 mmol/Liter.

SMILES: CCCCCCCCC=CCCCCCCCC(=O)OCC1OC(OC2CCC3(C)C(=CCC4C3CCC3(C)C(C(C)CCC(CC)C(C)C)CCC43)C2)C(O)C(O)C1O [3-O-(6′-O-oleoyl-β-D-glucopyranosyl)-β-sitosterol]
inhibitory effects on Epstein-Barr virus-early antigen [1]: significant inhibitory effects

SMILES: C[C@@H]1O[C@@H](Oc2ccc(CN=C=S)cc2)[C@H](O)[C@H](O)[C@H]1O [4(α-L-rhamnosyloxy)-benzyl isothiocyanate]
inhibitory effects on Epstein-Barr virus-early antigen [1]: significant inhibitory effects

SMILES: CCOC(=O)NCc1ccc(O[C@@H]2O[C@@H](C)[C@H](O)[C@@H](O)[C@H]2O)cc1 [O-Ethyl-4-(α-L-rhamnosyloxy)benzyl carbamate]
inhibitory effects on Epstein-Barr virus-early antigen [1]: significant inhibitory effects

SMILES: C[S+]([O-])CCCCN=C=S (centres unmarked) [SFN, 1-isothiocyanato-4-methylsulfinylbutane]
increase in NQO1 enzymatic activity in the mammary epithelium [2]: 3 fold
Fold increase in NQO-1 gene expression [3]: 12.96
elevated immunostaining of HO-1 in the mammary epithelium (heme oxygenase-1 (HO-1)): 4 fold
blocking the formation of mammary tumors (mammary tumors): effective in blocking the formation of mammary tumors

ascorbic acid concentration up to which myrosinase-promoted conversion increases linearly, then levels off (myrosinase [6]): about 2 mmol/L
SMILES: O=C1O[C@H]([C@@H](O)CO)C(O)=C1O [ascorbic acid]
yield of sulforaphane versus ascorbic acid concentration (myrosinase [4]): direct correlation between larger yield of sulforaphane and higher concentrations of ascorbic acid
increase of reaction rate relative to absence of ascorbic acid [5]: 13 fold

SMILES: CCOC(=S)NCc1ccc(OC2OC(C)C(O)C(O)C2O)cc1 (centres unmarked) [niazimicin]
inhibitory effects on Epstein-Barr virus-early antigen [1]: significant inhibitory effects

Reference: patent US12648979B2, “Compositions comprising sulforaphane or a sulforaphane precursor and Moringa plant components” (Nutramax Laboratories, Inc., priority 2021, dated 2026)
